Our source for the IC50 values is ChEMBL document CHEMBL5331060, “Bisindole natural products: A vital source for the development of new anticancer drugs” (Eur J Med Chem, 2022).

Assay type in all cases: functional, cell-based
The nature of assay [1]: Antiproliferative activity against vincristine-resistant human KB cells assessed as inhibition of cell growth incubated for 72 hrs by MTT assay. (In general: Formazan colour is commonly taken as a measure of viable cells.)
The test system of another assay is CCRF-CEM. Briefly: Antiproliferative activity against human CCRF-CEM cells assessed as inhibition of cell growth by MTT assay.
The subject of a further assay is B16. The assay can be described thus: Antiproliferative activity against B16 cells assessed as inhibition of cell growth by MTT assay. Particulars: Mus musculus.
The next assay has as its system NCI-H460. The assay can be described thus: Antiproliferative activity against human NCI-H460 cells assessed as inhibition of cell growth by MTT assay.
A further assay concerns PANC-1. Briefly: Antiproliferative activity against human PANC-1 cells assessed as inhibition of cell growth incubated for 24 hrs by FMCA assay. As to conditions: PANC-1, 24 h.
For assay [2], the system named is A549. Briefly: Antiproliferative activity against human A549 cells assessed as inhibition of cell growth.
For a further assay, the system named is MCF7. Briefly: Antiproliferative activity against human MCF7 cells assessed as inhibition of cell growth.
The nature of assay [3]: Antiproliferative activity against vincristine-resistant human KB cells assessed as inhibition of cell growth.
A further assay relates to HCT-116. The assay can be described thus: Antiproliferative activity against human HCT-116 cells assessed as inhibition of cell growth.
A further assay deals with HT-29. The assay can be described thus: Antiproliferative activity against human HT-29 cells assessed as inhibition of cell growth.
Another assay concerns KB. The assay can be described thus: Antiproliferative activity against vincristine-sensitive human KB cells assessed as inhibition of cell growth.
For another assay, the system named is PC-3. Briefly: Antiproliferative activity against human PC-3 cells assessed as inhibition of cell growth.
The subject of a further assay is MDA-MB-231. Briefly: Antiproliferative activity against human MDA-MB-231 cells assessed as inhibition of cell growth.
The test system of assay [4] is A549. The assay can be described thus: Antiproliferative activity against human A549 cells assessed as inhibition of cell growth incubated for 72 hrs by MTT assay. Particulars: A549, 72 h, pooled result: one value given for 8 cell lines, strains, targets or settings.

Molecules are shown by their SMILES. pIC50: −log10 of the molar value. Values after ≈ are worked out from the molar mass of the structure shown.

The term IC50 denotes the concentration that gives 50% inhibition. Turning to `O=C1NC(=O)c2c1c1c3ccccc3[nH]c1c1[nH]c3cc(O)ccc3c21`, in [1], the 50% inhibitory concentration (IC50) amounted to 2.28 µg/mL (≈ 6.68 µM).
As to `COC(=O)c1[nH]cc2c1[C@]1(CN(C)c3ccc(Cl)cc31)c1[nH]c3ccc(Cl)cc3c1-2`, the IC50 with CCRF-CEM stood at 4 µg/mL (≈ 9.13 µM); in the assay on B16 it was 5 µg/mL (≈ 11.4 µM); in the assay with NCI-H460, 12 µg/mL (≈ 27.4 µM).
A word on the pIC50: it is the negative decadic logarithm of the IC50, by convention in mol/L. On to `O=C1NCc2c1c1c3ccc(O)cc3[nH]c1c1[nH]c3ccccc3c21`, for which the pIC50 in the assay with PANC-1 is 4.17.
Take `C/C=C1/CN2CC[C@]34C(=C(CN5c6ccccc6[C@@]67CCN8CCC[C@]9(CC[C@]56[C@H](C(=O)OC)C9)[C@H]87)[C@H]1C[C@H]23)Nc1ccccc14`: the pIC50 (in the assay on A549 [2]; with MCF7; in assay [3]; in the assay with HCT-116; with HT-29; with KB) was 5.89 in each case. In addition, the negative logarithm of the IC50 (pIC50) with PC-3 and in the assay with MDA-MB-231 was 5.89 each time.
Take `c1ccc2c(C3(c4c[nH]c5ccccc45)CCCCC3)c[nH]c2c1`: the pIC50 in the assay with A549 [4] was 4.73.
